Test results from patent publication US20060068496A1, “Differentiation of stem cells” (priority 2004, published 2006).

Experiments:
Type in all cases: cell-based, human
ACTHep1-6 = experiment: Reversal of transformation of ACTHep1-6 by ponasterone A induced dominant negative RAS; conditions: 10 μM ponasterone A in Med3, 5% serum, 10,000 cells per well
From the text: Identification of a human hepatocyte cell line starting from human EG cells using sequential expression of an activated and a dominant negative transforming gene can be performed as follows. Human EG cells can be transfected with a construct containing the human hepatitis B virus core promoter/enhancer (SEQ ID NO:1) driving an activated H-RAS gene (SEQ ID NO:2) and also optionally containing an ecdysone inducible gene switch promoter (SEQ ID NO:3) driving a dominant negative H-RAS gene (SEQ ID NO:4) (Sandig et al., (1996) Gene Therapy 3, 1002-1009; Saez et al., (2000) Proc. Natl. Acad. Sci. 97, 14512-14517). The activated H-RAS can be transcribed after differentiation of the EG cells. Transformed hepatocytes can be isolated in soft agar, cloned, expanded and frozen. Cultures can be plated at low density then treated with ponasterone A to induce the dominant negative RAS and reverse transformation. Cells are expected to arrest growth at subconfluent densities. Their identity as hepatocytes can be confirmed by production of albumin, cyp1A and cyp3A.
ACTHep1-6 can be further characterized. Individual vials can be thawed and plated in Med3, 5% serum as described above. Cells can be expanded, then plated at a density of 10,000 cells per well in a 96 well plate. […] Cells are selected having the cuboidal appearance of hepatocytes with a prominent nucleus. […]

Hay1 [1] = experiment: Zeocin sensitivity of Hay1 (standard titration curve, selection)
Procedure: In preparation for the establishment of the frt insert line, the sensitivity of Hay1 to zeocin was tested.
The plasmid pFrt/lac/Zeo (Invitrogen) can be transfected into Hay1 using Lipofectamine 2000. After 48 hrs, resistant cells can be selected by changing to medium containing 75 μg/ml Zeocin (Invitrogen). Non-resistant cells are dead in about seven days. An efficiency of about 1×10^−5/μg is expected. Approximately ten individual transfectants can be selected and tested for expression of lacZ. Copy number of the plasmid can be evaluated via Southern blotting. Transfectants with single insertions can be chosen for further analysis. To examine the behavior of the insert during differentiation, cells can be subjected to EB formation, followed by culture in Med3, 5% defined calf serum for one week. They can be reevaluated for lacZ expression. Since Zeo selection can be maintained, it is expected that all surviving cells will retain lacZ expression. It is a general strategy to maintain selective pressure on the inserts to insure expression of the surrounding DNA, as has been successfully employed in a number of other studies (Zweigerdt et al., (2001) Cytotherapy 5, 399-413; Liu et al. (2004) Stem Cells Dev. 13, 636-645; Schuldiner et al., (2003) Stem Cells 21, 257-265).

Hay1 [2] = experiment: Growth of Hay1 in defined medium after removal of individual peptide hormone factors; conditions: for effect on growth of removal of the factor from the medium: Hay1, defined feeder free medium, factor removed individually
Procedure: The use of feeder layers complicates the use of stem cells for a variety of applications. Use of feeder layers dramatically raise the background in standard in vitro toxicology assays, such as MTT or resazurin reductions confounding the results. Hay1 can be grown routinely under defined conditions. Standard medium consists of KO-DMEM, 15% KO-serum replacement, glutamine, nonessential amino acids, β-MeSH, 10 ng/ml oncostatin M, 10 ng/ml SCF and 25 ng/ml bFGF. Using this medium, Hay1 continues to express the markers listed above and doubles approximately every three to four days. This is slightly slower than their doubling on feeder layers.
Growth of Hay1 was examined under various conditions known to affect stem cell growth and differentiation. Mouse and human EG cells require a source of gp130 signaling for growth in culture (Shamblott et al. (1998); Koshimuzu et al. (1996) Development 122, 1235-1242).
(§1) Since Oct 4 controls Nanog expression (Rodda et al. (2005)), it was expected that induction of Oct 4 would also raise nanog, and this is what was observed.

Oct 4 and Nanog = Oct 4 and Nanog expression in Hay1 by real time RT-QPCR
From the text: While surface markers and alkaline phosphatase are convenient markers for stem cells, it has become clear that expression of the transcription factors Oct 4 and Nanog are fundamental characteristics of stem cells (Rodda et al. (2005) J. Biol. Chem. 280, 24731-24737; Chambers et al. (2003) Cell 113, 643-655). Hay1 was examined for expression of these factors using real time RT-QPCR. […] Biomol. Screen. 5, 249-254), a medium that is a mixture of Weymouth's MAB, Ham's F12 and William's E. It also contains 5% defined calf serum (Hyclone). Actin was used as a standard.
as §1

[3] = Hay1, FGF replaced after withdrawal

## CC(C)CC[C@@H](O)[C@](C)(O)[C@H]1CC[C@@]2(O)C3=CC(=O)[C@@H]4C[C@@H](O)[C@@H](O)C[C@]4(C)[C@H]3CC[C@]12C [ponasterone A]
ACTHep1-6
  growth of cells after addition of ponasterone A: stop growing over the next 24 hours and arrest at subconfluent densities

## Cc1c(N)nc([C@H](CC(N)=O)NC[C@H](N)C(N)=O)nc1C(=O)N[C@H](C(=O)N[C@H](C)[C@@H](O)[C@H](C)C(=O)N[C@H](C(=O)NCCC1=N[C@@H](c2nc(C(=O)NCCCCN=C(N)N)cs2)CS1)[C@@H](C)O)[C@@H](O[C@@H]1O[C@@H](CO)[C@@H](O)[C@H](O)[C@@H]1O[C@H]1O[C@H](CO)[C@@H](O)[C@H](OC(N)=O)[C@@H]1O)c1cnc[nH]1 [zeocin]
Hay1 [1]; Hay1, standard titration curve
  effective selection concentration: 75 µg/mL
Hay1 [1]; Hay1 transfected with pFrt/lac/Zeo, medium containing 75 μg/ml Zeocin
  time until non-resistant cells are dead: about seven

## human Stem Cell Factor [SCF]
Hay1 [2]
  effect on growth of removal of the factor from the medium: some effect on growth

## human basic Fibroblast Growth Factor [FGF]
Hay1 [2]
  effect on growth of removal of the factor from the medium: slight negative effect on growth
Hay1 [2]; listed as bFGF
  effect on growth of removal of the factor from the medium: some effect on growth
Hay1 [2]; Hay1, defined medium, FGF removed
  effect on morphology of removal of the factor: flatter and more spread out on the dish
Oct 4 and Nanog; [3]
  Nanog expression after replacement of FGF: raise nanog
  Oct 4 expression after replacement of FGF: returned Oct 4 expression to its former level
Oct 4 and Nanog; Hay1, FGF withdrawn
  Oct 4 and Nanog expression after FGF withdrawal: dramatic reduction in expression

## oncostatin M
Hay1 [2]
  effect on growth of removal of the factor from the medium: completely arrested the growth
Hay1 [2]; listed as Onc M
  effect on growth of removal of the factor from the medium: some effect on growth
Hay1 [2]; Hay1, defined medium, factor removed
  alkaline phosphatase status of cultures after removal of the factor: alkaline phosphatase negative within several days
